Reference: ChEMBL document CHEMBL5365543, “Benzamidine Conjugation Converts Expelled Potential Active Agents into Antifungals against Drug-Resistant Fungi” (J Med Chem, 2023)
≈ marks a conversion by molar mass, not a printed value. Calls of active or inactive are those of the source. The rule behind the calls is not given here.

Experiments:
Candida albicans [1] = experiment: microbe, parasite or virus in culture; assay type: functional; conditions: DSY654, time 24 hrs
Description: Antifungal activity against efflux pump-deficient Candida albicans DSY654 assessed as inhibition of fungal growth measured after 24 hrs by CLSI based microtiter plate analysis

Candida albicans [2] = experiment: Antifungal activity against wild-type Candida albicans SC5314 assessed as inhibition of fungal growth measured after 24 hrs by CLSI based microtiter plate analysis; assay type: functional
Candida albicans [3] = experiment: Drug accumulation in Candida albicans SC5314 measured per 10^8 cells incubated for 3 hrs by HPLC analysis; assay type: functional, organism-based
[4] = Cytotoxicity against human HBE cells assessed as inhibition of cell growth measured after 4 hrs by MTT assay; assay type: toxicity, cell-based
[5] = Cytotoxicity against mouse L929 cells assessed as inhibition of cell growth measured after 4 hrs by MTT assay; assay type: toxicity, cell-based
[6] = Induction of hemolysis in mouse RBC cells at 2 to 32 microg/ml incubated for 60 mins by absorbance based analysis; assay type: toxicity, cell-based, Erythrocyte; conditions: red blood cells (erythrocytes), at 2 to 32 µg/mL, dose 2-32 µg/ml, read-out: Activity
Candida albicans [7] = experiment: Antifungal activity against clinical isolate Candida albicans YEM13 overexpressing efflux pump MdrL assessed as inhibition of fungal growth measured after 24 hrs by CLSI based microtiter plate analysis; assay type: functional
Candida albicans [8] = experiment: Antifungal activity against clinical isolate Candida albicans YEM15 overexpressing efflux pump CdrL and Cdr2 assessed as inhibition of fungal growth measured after 24 hrs by CLSI based microtiter plate analysis; assay type: functional
Candida albicans [9] = experiment: Antifungal activity against clinical isolate Candida albicans SCUPC2R14MPG2A harbouring UPC2 mutation overexpressing […] Erg11 assessed as inhibition of fungal growth measured after 24 hrs by CLSI based microtiter plate analysis; assay type: functional
Candida albicans [10] = experiment: Antifungal activity against clinical isolate Candida albicans SCMRRIR34MPG2A harbouring MRR1 mutation overexpressing efflux pump MdrL assessed as inhibition of fungal growth measured after 24 hrs by CLSI based microtiter plate analysis; assay type: functional
Candida albicans [11] = experiment: Antifungal activity against clinical isolate fluconazole-resistant Candida albicans DSY296 harbouring TAC1 mutation overexpressing efflux pump CdrL and Cdr2 assessed as inhibition of fungal growth measured after 24 hrs by CLSI based microtiter plate analysis; assay type: functional
Candida albicans [12] = experiment: Antifungal activity against clinical isolate fluconazole-resistant Candida albicans G5 harbouring MRR1 mutation overexpressing MdrL assessed as inhibition of fungal growth measured after 24 hrs by CLSI based microtiter plate analysis; assay type: functional
Candida albicans [13] = experiment: Antifungal activity against clinical isolate fluconazole-resistant Candida albicans Gu5 harbouring TAC1 mutation overexpressing efflux pump CdrL and Cdr2 assessed as inhibition of fungal growth measured after 24 hrs by CLSI based microtiter plate analysis; assay type: functional
Candida albicans [14] = experiment: Antifungal activity against clinical isolate fluconazole-resistant Candida albicans CA632 assessed as inhibition of fungal growth measured after 24 hrs by CLSI based microtiter plate analysis; assay type: functional
[Candida] auris [15] = Antifungal activity against clinical isolate fluconazole-resistant Candida auris CBS12774 assessed as inhibition of fungal growth measured after 24 hrs by CLSI based microtiter plate analysis; assay type: functional; conditions: Candidozyma auris
[Candida] auris [16] = Antifungal activity against clinical isolate fluconazole-resistant Candida auris CBS12776 assessed as inhibition of fungal growth measured after 24 hrs by CLSI based microtiter plate analysis; assay type: functional; conditions: Candidozyma auris
Nakaseomyces glabratus = experiment: Antifungal activity against clinical isolate fluconazole-resistant Candida glabrata CG2 assessed as inhibition of fungal growth measured after 24 hrs by CLSI based microtiter plate analysis; assay type: functional
Cryptococcus neoformans = experiment: Antifungal activity against clinical isolate fluconazole-resistant Cryptococcus neoformans H99 assessed as inhibition of fungal growth measured after 24 hrs by CLSI based microtiter plate analysis; assay type: functional
Candida tropicalis = experiment: Antifungal activity against clinical isolate fluconazole-resistant Candida tropicalis CT10 assessed as inhibition of fungal growth measured after 24 hrs by CLSI based microtiter plate analysis; assay type: functional
[17] = Drug accumulation in wild-type Candida albicans SC5314 at 50 microg/ml incubated for 3 hrs by HPLC analysis; assay type: ADME; conditions: dose 50 µg/ml
[18] = Drug accumulation in wild-type Candida albicans SC5314 at 20 microg/ml incubated for 2 hrs by flow cytometery analysis; assay type: ADME; conditions: dose 20 µg/ml
[19] = Drug accumulation in Candida albicans SC5314 by confocal laser scanning microscopic analysis; assay type: ADME
Cell membrane = experiment: Disruption of membrane integrity in Candida albicans SC5314 at 16 to 32 microg/ml incubated for 1 hr by Sytox green staining based fluorescence method; assay type: subcellular; conditions: dose 16-32 µg/ml
Candida albicans [20] = experiment: Antifungal activity against Candida albicans assessed as inhibition of fungal growth measured after 24 hrs by CLSI based microtiter plate analysis; assay type: functional
[21] = Drug accumulation in Candida albicans TOM70-GFP-CAI4 at 20 microg/ml incubated for 30 mins by confocal laser scanning microscopic analysis; assay type: ADME; conditions: 0.5 h, dose 20 µg/ml
[22] = Drug localization in mitochondria of Candida albicans SC5314 incubated for 30 mins by MitoTracker dye based confocal laser scanning microscopic analysis; assay type: ADME; conditions: 0.5 h
[23] = Drug accumulation in Candida albicans YEM13 expressing efflux pump MdrL at 20 microg/ml incubated for 2 hrs by flow cytometery analysis; assay type: ADME; conditions: dose 20 µg/ml
[24] = Drug accumulation in Candida albicans YEM15 expressing efflux pump CdrL and Cdr2 at 20 microg/ml incubated for 2 hrs by flow cytometery analysis; assay type: ADME; conditions: dose 20 µg/ml
Candida albicans [25] = experiment: Induction of drug resistance in wild-type Candida albicans SC5314 assessed as change in MIC at 0.5 times of MIC measured after 30 passages by broth microdilution method; assay type: functional
[26] = Candida albicans, SC5314, read-out: MIC80
[27] = Candida albicans, SC5314, 24 h, read-out: MIC80

Compound | MIC80 (Candida albicans [1]) | MIC80 (Candida albicans [2]; [26]) | hemolysis at 1 h [6] | MIC80 (Candida albicans [2]; [27]) | MIC80 (Candida albicans [7]) | MIC80 (Candida albicans [8]) | MIC80 (Candida albicans [9]) | MIC80 (Candida albicans [10]) | MIC80 (Candida albicans [11]) | MIC80 (Candida albicans [12]) | MIC80 (Candida albicans [13]) | MIC80 (Candida albicans [14]) | MIC80 ([Candida] auris [15]) | MIC80 ([Candida] auris [16]) | MIC80 (Nakaseomyces glabratus) | MIC80 (Cryptococcus neoformans) | MIC80 (Candida tropicalis) | Drug uptake [17] | other results
C=C1C[C@@]23CC[C@H]4[C@@](C)(CCC[C@@]4(C)C(=O)OCC[N+](C)(CC)CC)[C@@H]2CC[C@]1(O)C3.[I-] | 32 µg/mL | > 256 µg/mL |  |  |  |  |  |  |  |  |  |  |  |  |  |  |  |  | Drug uptake (Candida albicans [3]): inactive
C=C1C[C@@]23CC[C@H]4[C@@](C)(CCC[C@@]4(C)C(=O)OCCCc4c5[n+](cc6c(OC)c(OC)ccc46)CCc4cc6c(cc4-5)OCO6)[C@@H]2CC[C@]1(O)C3.[I-] | 4 µg/mL | 8 µg/mL | < 2% |  |  |  |  |  |  |  |  |  |  |  |  |  |  |  | IC50 at 4 h [4]: 4.79 µg/mL; IC50 at 4 h [5]: 1.32 µg/mL
C=C1C[C@@]23CC[C@H]4[C@@](C)(CCC[C@@]4(C)C(=O)OCCCOc4ccc(C(=N)N)cc4)[C@@H]2CC[C@]1(O)C3 | 2 µg/mL (≈ 4.04 µM) |  | < 2% | 4 µg/mL (≈ 8.09 µM) | 8 µg/mL (≈ 16.2 µM) | 8 µg/mL (≈ 16.2 µM) | 8 µg/mL (≈ 16.2 µM) | 8 µg/mL (≈ 16.2 µM) | 8 µg/mL (≈ 16.2 µM) | 8 µg/mL (≈ 16.2 µM) | 8 µg/mL (≈ 16.2 µM) | 8 µg/mL (≈ 16.2 µM) | 16 µg/mL (≈ 32.3 µM) | 16 µg/mL (≈ 32.3 µM) | 8 µg/mL (≈ 16.2 µM) | 16 µg/mL (≈ 32.3 µM) | 8 µg/mL (≈ 16.2 µM) | Active | MIC80 (Candida albicans [2]; 24 h): 8 µg/mL (≈ 16.2 µM); IC50 at 4 h [4]: > 32 µg/mL; IC50 at 4 h [5]: 23.6 µg/mL (≈ 47.7 µM)
CCN(CC)c1ccc2c(-c3ccccc3C(=O)N3CCN(Cc4cn(CCCOc5ccc(C(=N)N)cc5)nn4)CC3)c3ccc(=[N+](CC)CC)cc-3oc2c1.[Cl-] |  |  | < 2% |  |  |  |  |  |  |  |  |  |  |  |  |  |  |  | Drug uptake [18]: Active; Drug uptake [19]: Active; Activity (Cell membrane): inactive; MIC (Candida albicans [20]): > 128 µg/mL; Drug uptake [21]: Active; Drug uptake [22]: Active; Drug uptake [23]: Active; Drug uptake [24]: Active
CCN(CC)c1ccc2c(-c3ccccc3C(=O)O)c3ccc(=[N+](CC)CC)cc-3oc2c1.[Cl-] [RHODAMINE] |  |  |  |  |  |  |  |  |  |  |  |  |  |  |  |  |  |  | Drug uptake [19]: Not Active
C=C1C(=O)[C@@]23CC[C@H]4[C@@](C)(CCC[C@@]4(C)C(=O)OCCCOc4ccc(C(=N)N)cc4)[C@@H]2CC[C@]1(O)C3 |  |  |  | 4 µg/mL (≈ 7.86 µM) | 4 µg/mL (≈ 7.86 µM) | 4 µg/mL (≈ 7.86 µM) | 4 µg/mL (≈ 7.86 µM) | 8 µg/mL (≈ 15.7 µM) | 4 µg/mL (≈ 7.86 µM) | 4 µg/mL (≈ 7.86 µM) | 8 µg/mL (≈ 15.7 µM) | 4 µg/mL (≈ 7.86 µM) | 8 µg/mL (≈ 15.7 µM) | 8 µg/mL (≈ 15.7 µM) | 8 µg/mL (≈ 15.7 µM) | 8 µg/mL (≈ 15.7 µM) | 4 µg/mL (≈ 7.86 µM) | Active | 
C=C1C[C@@]23CC[C@@H]4[C@](C)(CN)CCC[C@@]4(C)[C@@H]2CC[C@]1(O)C3 | 32 µg/mL (≈ 105 µM) | > 256 µg/mL |  |  |  |  |  |  |  |  |  |  |  |  |  |  |  |  | Drug uptake (Candida albicans [3]): inactive
N=C(N)c1ccc(OCCCOC(=O)c2ccccc2Nc2cccc(C(F)(F)F)c2)cc1 |  | 8 µg/mL (≈ 17.5 µM) |  |  |  |  |  |  |  |  |  |  |  |  |  |  |  | Active | Activity (Candida albicans [25]): Active
C[C@H]1[C@H](C)CC[C@]2(C(=O)OCCCOc3ccc(C(=N)N)cc3)CC[C@]3(C)C(=CC[C@@H]4[C@@]5(C)CC[C@H](O)C(C)(C)[C@@H]5CC[C@]43C)[C@H]12 |  |  |  | 4 µg/mL (≈ 6.32 µM) | 4 µg/mL (≈ 6.32 µM) | 4 µg/mL (≈ 6.32 µM) | 4 µg/mL (≈ 6.32 µM) | 4 µg/mL (≈ 6.32 µM) | 4 µg/mL (≈ 6.32 µM) | 4 µg/mL (≈ 6.32 µM) | 4 µg/mL (≈ 6.32 µM) | 4 µg/mL (≈ 6.32 µM) | 8 µg/mL (≈ 12.6 µM) | 4 µg/mL (≈ 6.32 µM) | 4 µg/mL (≈ 6.32 µM) | 4 µg/mL (≈ 6.32 µM) | 4 µg/mL (≈ 6.32 µM) | Active | MIC (Candida albicans [2]): inactive; Activity (Candida albicans [25]): Active
